From patent US11390617B2, “Methods of treating non-Hodgkin lymphoma using 2-(2,6-dioxopiperidin-3-yl)-4-((2-fluoro-4-((3-morpholinoazetidin-1-yl)methyl)benzyl)amino)isoindoline-1,3-dione” (Celgene Corporation, priority 2019, dated 2022) come the findings set out here.

Assay [1] deals with RL follicular lymphoma xenograft tumors. Put plainly: RL (follicular lymphoma) xenograft model, alone and in combination with rituximab. In kind it is in vivo, female SCID mice. The conditions noted are these: rituximab 25 mg/kg intraperitoneally BIW, single agent. As to the method:
(§1) Female 6- to 8-weeks-old CB17 SCID mice were obtained from Charles River Laboratories. Mice were housed in a barrier facility in micro-isolator cages at 10 animals per cage. Mice were fed with Harlan-Teklad LM-485 Mouse/Rat Sterilizable Diet and autoclaved water ad libitum and maintained on a 12 hours light-dark cycle. Animals were acclimatized to the animal housing facility for a period of 7 days before the beginning of the experiment. All animal studies were performed under protocols approved by Institutional Animal Care and Use Committees.
(§2) Suspensions of Compound 1 were pared in aqueous 0.5% Methyl Cellulose, 0.25% Tween 80 and 50 mM Citrate pH 3. […]
(§3) Tumor cells were injected subcutaneously in the flank region above the right hind legs of female CB17 SCID mice. […] Tumor volumes were determined before the initiation of treatment and were considered as the starting volumes. Tumors were measured twice a week for the duration of the study. The long and short axes of each tumor were measured using a digital caliper in millimeters. The tumor volumes were calculated using the formula: width^2×length/2. […]
(§4) Xenograft data are expressed as mean±SEM. […]
Xenograft study was conducted with female SCID mice bearing RL follicular lymphoma xenograft tumors. […] Tumors were measured twice a week using calipers and tumor volumes were calculated using the formula of W^2×L/2. […]

For assay [2], the system named is SUDHL-6 DLBCL xenograft tumors. Put plainly: SUDHL-6 (DLBCL) xenograft model. It is filed as in vivo, female SCID mice. The conditions noted are these: rituximab 10 mg/kg intraperitoneally BIW, single agent. How it is done: as §1, §2, §3, §4
Xenograft study was conducted with female SCID mice bearing SUDHL-6 DLBCL xenograft tumors. […] Tumors were measured twice a week using calipers and tumor volumes were calculated using the formula of W^2×L/2. […]

The subject of assay [3] is WSU-DLCL2 DLBCL xenograft tumors. As to the kind of experiment: WSU-DLCL2 (DLBCL) xenograft model. In kind it is in vivo, female SCID mice. The conditions noted are these: rituximab 10 mg/kg intraperitoneally BIW, single agent. As to the method: as §1
Suspensions of Compound 1 were pared in aqueous 0.5% Methyl Cellulose, 0.25% Tween 80 and 50 mM Citrate pH 3. The formulations were homogenized using a Teflon pestle and mortar (Potter-Elvehjem tissue grinder). For multiday studies, the compound was freshly formulated every day. Compound 1 and vehicle were administered by oral gavage. Rituximab was diluted in 0.9% saline and administered intraperitoneally.
Tumor cells were injected subcutaneously in the flank region above the right hind legs of female CB17 SCID mice. When the tumor volumes reach to approximately 200 mm^3, mice bearing tumors of 150-300 mm^3 were randomly assigned to receive oral doses of vehicle, Compound 1, rituximab or combination of Compound 1 (5 days on and 2 days off for 3 weeks) and rituximab (twice a week) for the duration of the study. Tumor volumes were determined before the initiation of treatment and were considered as the starting volumes. Tumors were measured twice a week for the duration of the study. The long and short axes of each tumor were measured using a digital caliper in millimeters. The tumor volumes were calculated using the formula: width^2×length/2. The tumor volumes were expressed in cubic millimeters (mm^3).
Xenograft data are expressed as mean±SEM. Statistical analyses were performed using GraphPad Prism. […]
Xenograft study was conducted with female SCID mice bearing WSU-DLCL2 DLBCL xenograft tumors. […] Tumors were measured twice a week using calipers and tumor volumes were calculated using the formula of W^2×L/2. […]

The next assay relates to SU-DHL-4 cell line. Put plainly: Cell proliferation and viability assay using SU-DHL-4 cell line (Cell Titer-Glo). It is filed as cell-based. The conditions noted are these: Homo sapiens, SU-DHL-4, 120 hours. As to the method:
The following exemplary assay uses a DLBCL cell line, for example, the SU-DHL-4 cell line (Deutsche Sammlung von Mikroorganismen und Zellkulturen GmbH [DSMZ]: catalogue number ACC-495) at 120 hours post-treatment. The seeding density for SU-DHL-4 can be optimized to ensure assay linearity in 1536-well plates.
Increasing concentrations (0.5 nM to […]) of Compounds 1, 2, and 3 were each spotted in a 20-point dilution fashion (unevenly spaced data points) via an acoustic dispenser (EDC ATS-100) into an empty 1536-well plate. The DMSO concentration was kept constant for a final assay concentration of 0.1% DMSO. Prior to testing, SU-DHL-4 cells were grown in RPMI-1640 (Roswell Park Memorial Institute-1640) medium with 10% FBS (fetal bovine serum: HyClone) and expanded in culture flasks to provide sufficient amounts of starting material. Cells were then diluted to 500 cells per well in a 5 μL volume, and added directly to the compound-spotted 1536-well plates. Cells were allowed to grow for 120 hours in 5% CO2 at 37° C. At the time when exposure of cells to compound began (t0), initial viable cell number was assessed via Cell Titer-Glo® Luminescent Cell Viability Assay at a 1 vol: 2 vol ratio according to manufacturer's instructions (Promega Corporation, Madison, Wis.) by quantifying the level of luminescence generated by adenosine-5′-triphosphate (ATP) present in viable cells. After 120 hours, cell viability of the treated cells was assessed via Cell Titer-Glo© and read for luminescence. All growth inhibition curves were processed and evaluated using Activity Base (IDBS, Alameda, Calif.). Cell viability IC50 values were calculated using a four parameter logistic model (sigmoidal dose-response model): y=(A+((B−A)/(1+((C/x)^D)))) wherein: A=YMin B=YMax C=EC50 D=Hill slope IC50=the concentration of the compound when Y=50% of DMSO control Y=cell viability measured as luminescence unit, and x=concentration of compound.
On the technique in general: ATP-based viability assays read luminescence as a measure of living cells.

The subject of assay [4] is OCI-LY10-Luc CNS DLBCL xenograft. As to the kind of experiment: OCI-LY10-Luc CNS lymphoma xenograft model (intracranial). It is filed as in vivo, Nude (nu/nu) mice. The conditions noted are these: 30 mg/kg QD oral, 3 weeks. How it is done: Antitumor activity of Compound 1 was evaluated as a single agent in OCI-LY10-luc diffuse large B-cell lymphoma (DLBCL) xenografted intracranially into nude mice as a model for central nervous system (CNS) lymphoma.
CNS lymphoma study was conducted with OCI-LY-10 cells transfected with luciferase (OCI-LY-10-Luc). Nude (nu/nu) mice were inoculated intracranially into the right cerebral hemisphere of the brain with OCI-LY10-Luc cells. Following inoculation of animals, the tumors were allowed to grow for 5 days. On day 5 following tumor cell inoculation, the mice were imaged using IVIS100 imaging system. The mice having tumors with an average flux ranging between 1×10^7 and 2×10^7 photons/sec were pooled together and randomized into various treatment groups. Compound 1 was formulated in 0.5% Methyl Cellulose, 0.25% Tween 80 and 50 mM Citrate pH 3 (MCT) in water. The animals were orally administered vehicle (MCT) or Compound 1 once daily (QD) for 3 weeks. Doses of Compound 1 ranged between 3 and 30 mg/kg. The positive control pomalidomide (30 mg/kg, QD) formulated in aqueous 0.5% CMC and 0.25% Tween-80 was administered PO. The animals were imaged for bioluminescence once a week using IVIS100 imaging system and monitored for survival. Statistical analysis was performed using a log-rank test between Compound 1-treated and vehicle-treated control groups.

Rituximab [reference compound]: the tumor volume reduction in assay [1] is 56%; in assay [2], 54%; in assay [3], 66%.

As usually defined, the IC50 is the concentration that gives 50% inhibition. The compound `O=C1CC[C@@H](N2C(=O)c3cccc(NCc4ccc(CN5CC(N6CCOCC6)C5)cc4F)c3C2=O)C(=O)N1` [Compound 2, (R)-2-(2,6-dioxopiperidin-3-yl)-4-((2-fluoro-4-((3-morpholinoazetidin-1-yl)methyl)benzyl)amino)isoindoline-1,3-dione] gave an IC50 in the assay with SU-DHL-4 cell line below 200 nM.

`O=C1CCC(N2C(=O)c3cccc(NCc4ccc(CN5CC(N6CCOCC6)C5)cc4F)c3C2=O)C(=O)N1` (stereo not shown) [Compound 3, 2-(2,6-dioxopiperidin-3-yl)-4-((2-fluoro-4-((3-morpholinoazetidin-1-yl)methyl)benzyl)amino)isoindoline-1,3-dione] showed an IC50 in the assay with SU-DHL-4 cell line below 200 nM.

As for `Nc1cccc2c1C(=O)N(C1CCC(=O)NC1=O)C2=O` (stereo not shown) [Pomalidomide, reference compound], the “% BLI Inhibition on Day 26” value in assay [4] (relative to vehicle control) was found to be 68.8%. In addition, in assay [4] (vehicle 35 days), the “Median Survival” value turned out to be 50 days.
